# Source: patent US20260217661A1, “TREATMENTS FOR PAIN” (Sevenless Therapeutics Limited, priority 2023, published 2026)
# Molecular target: T1, KRAS WT/SOS1 (Homo sapiens, UniProt Q07889)
# T1 sequence (Q07889 1-1333): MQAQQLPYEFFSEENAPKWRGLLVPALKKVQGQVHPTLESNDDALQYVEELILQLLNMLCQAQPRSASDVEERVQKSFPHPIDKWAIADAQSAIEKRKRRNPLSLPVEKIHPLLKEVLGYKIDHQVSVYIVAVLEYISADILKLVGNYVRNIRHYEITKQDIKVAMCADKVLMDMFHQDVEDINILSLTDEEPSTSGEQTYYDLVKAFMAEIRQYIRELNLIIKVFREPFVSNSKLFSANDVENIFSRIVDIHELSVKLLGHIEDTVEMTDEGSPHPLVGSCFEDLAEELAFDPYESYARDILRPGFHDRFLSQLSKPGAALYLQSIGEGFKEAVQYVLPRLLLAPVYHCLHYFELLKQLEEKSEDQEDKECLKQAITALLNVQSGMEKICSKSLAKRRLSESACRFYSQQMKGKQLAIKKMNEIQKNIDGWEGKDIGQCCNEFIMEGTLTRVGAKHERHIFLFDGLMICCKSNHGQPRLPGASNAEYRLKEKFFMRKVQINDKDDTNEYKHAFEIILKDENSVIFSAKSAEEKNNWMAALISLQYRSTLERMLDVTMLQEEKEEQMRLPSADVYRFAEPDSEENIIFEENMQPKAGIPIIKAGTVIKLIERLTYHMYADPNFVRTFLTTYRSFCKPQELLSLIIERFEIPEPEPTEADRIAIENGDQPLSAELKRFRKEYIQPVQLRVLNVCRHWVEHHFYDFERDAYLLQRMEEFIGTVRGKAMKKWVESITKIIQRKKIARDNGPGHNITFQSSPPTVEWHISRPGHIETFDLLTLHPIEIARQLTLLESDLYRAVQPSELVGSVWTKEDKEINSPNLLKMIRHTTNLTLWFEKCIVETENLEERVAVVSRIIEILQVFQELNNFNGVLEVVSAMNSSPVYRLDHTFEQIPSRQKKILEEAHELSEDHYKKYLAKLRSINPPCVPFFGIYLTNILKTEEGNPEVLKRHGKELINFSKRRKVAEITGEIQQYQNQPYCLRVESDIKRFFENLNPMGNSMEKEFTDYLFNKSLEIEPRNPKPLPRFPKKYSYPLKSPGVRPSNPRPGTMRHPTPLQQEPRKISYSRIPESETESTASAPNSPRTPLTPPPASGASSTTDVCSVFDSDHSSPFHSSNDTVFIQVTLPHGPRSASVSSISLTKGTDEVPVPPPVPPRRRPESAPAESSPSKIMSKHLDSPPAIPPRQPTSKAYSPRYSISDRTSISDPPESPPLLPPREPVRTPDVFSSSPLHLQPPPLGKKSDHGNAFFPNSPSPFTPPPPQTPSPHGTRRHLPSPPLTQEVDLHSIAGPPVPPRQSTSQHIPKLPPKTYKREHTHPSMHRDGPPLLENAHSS
# Assay: HTRF KRAS WT/SOS1 PPI kit (Cisbio) screen for SOS1 inhibitors
# Format: binding
# Settings: HTRF KRAS WT/SOS1 PPI assay, 10-point dilution series starting at 10 μM, 60 minutes incubation
# Procedure: Compounds were screened using an HTRF KRAS WT/SOS1 PPI kit provided by Cis bio, according to the manufacturer's instructions, with the modifications described below. All reagents were allowed to equilibrate to room temperature and diluted to working stock in Binding Domain Detection buffer (BDD buffer). Stock solutions were prepared by adding 1 part Tag1-KRAS WT/GTP to 1 part Tag2-SOS1 and 1 part BDD. Separately, 1 part Anti-Tag1 XL665 antibody premix was added to Anti-Tag2 Tb cryptate antibody premix. BI-3406 (Selleck Chemicals) was used as a standard, solubilised to 10 mM in DMSO. Test compounds were also solubilised to 10 mM in DMSO. […] Per well, 6 uL of Tag1-KRAS WT/GTP premix, 4 ul Tag2-SOS1 premix and 10 μl of Anti-Tag1 XL665 and Anti-Tag2 Tb cryptate antibodies were then added using a E1-ClipTip™ Electronic Adjustable Multichannel Equalizer Pipette. After the final addition, the plate was covered and placed in the benchtop incubator set at 22° C. The reaction was incubated for 60 minutes at room temperature, prior to reading using a Pherastar FSX plate reader.
compound,measurement,value
"COc1cc2nncc(N[C@H](C)c3cccc(C(F)F)c3F)c2cc1N1CC2CC(C1)O2 [Example-8, 6-(6-oxa-3-azabicyclo [3.1.1]heptan-3-yl)-N—((R)-1-(3-(difluoromethyl)-2-fluorophenyl)ethyl)-7-methoxycinnolin-4-amine]",IC50,< 100 nM
